Measured values published in US20090215758A1, “Use of 2,5-Disubstituted Thiazol-4-One Derivatives in Drugs” (Gruenenthal GmbH, priority 2005, published 2009).
Counter-ions that a name gives are not always drawn.

What was measured:
[1] = molecular target: T1, VR1 (human) (Homo sapiens, UniProt Q8NER1); assay: Functional study on vanilloid receptor (VR1), FLIPR Ca2+ assay in CHO K1 cells stably transfected with the VR1 gene; type: cell-based; details: for inhibition at 10 µM / activation at 10 µM: CHO-K1, test compound 10 μM; for inhibition at 10 µM / VR1 (human) (% inhibition compared to 10 μM CP): 5 min incubation, then 100 nM capsaicin, compared to 10 μM CP; for activation at 10 µM / VR1 (human) (% stimulation compared to 10 μM CP): Ca2+ signal relative to 10 μM capsaicin (CP); for activation at 10 µM: read-out: VR1 (human) (% stimulation compared to 10 μM CP); for EC50: unit inferred; for VR1 (human) (% inhibition compared to 10 μM CP) / VR1 (human) (% stimulation compared to 10 μM CP): test compound 10 μM
T1 construct: expressed in transfected cells; host or cells: CHO K1 cells (ECACC), stably transfected

[2] = molecular target: T2, vanilloid receptor 1 (VR1/TRPV1) of the rat species (Rattus norvegicus, UniProt O35433); assay: Functional study on vanilloid receptor 1, FLIPR Ca2+ assay in rat dorsal root ganglia cells; type: cell-based; details: for inhibition at 10 µM / activation at 10 µM / VR1 (rat) (% inhibition compared to 10 μM CP) / VR1 (rat) (% stimulation compared to 10 μM CP): test compound 10 μM; for inhibition at 10 µM / VR1 (rat) (% inhibition compared to 10 μM CP): 5 min incubation, then 100 nM capsaicin, relative to maximum inhibition with 10 μM capsaicin; for inhibition at 10 µM: read-out: VR1 (rat) (% inhibition compared to 10 μM CP); for activation at 10 µM / VR1 (rat) (% stimulation compared to 10 μM CP): Ca2+ signal relative to 10 μM capsaicin (CP); for activation at 10 µM: read-out: VR1 (rat) (% stimulation compared to 10 μM CP); for EC50: unit inferred
T2 construct: The spinal column is removed from beheaded rats; from tissue; host or cells: primary cells from rat dorsal root ganglia (DRGs)
T2 sequence (O35433 whole entry): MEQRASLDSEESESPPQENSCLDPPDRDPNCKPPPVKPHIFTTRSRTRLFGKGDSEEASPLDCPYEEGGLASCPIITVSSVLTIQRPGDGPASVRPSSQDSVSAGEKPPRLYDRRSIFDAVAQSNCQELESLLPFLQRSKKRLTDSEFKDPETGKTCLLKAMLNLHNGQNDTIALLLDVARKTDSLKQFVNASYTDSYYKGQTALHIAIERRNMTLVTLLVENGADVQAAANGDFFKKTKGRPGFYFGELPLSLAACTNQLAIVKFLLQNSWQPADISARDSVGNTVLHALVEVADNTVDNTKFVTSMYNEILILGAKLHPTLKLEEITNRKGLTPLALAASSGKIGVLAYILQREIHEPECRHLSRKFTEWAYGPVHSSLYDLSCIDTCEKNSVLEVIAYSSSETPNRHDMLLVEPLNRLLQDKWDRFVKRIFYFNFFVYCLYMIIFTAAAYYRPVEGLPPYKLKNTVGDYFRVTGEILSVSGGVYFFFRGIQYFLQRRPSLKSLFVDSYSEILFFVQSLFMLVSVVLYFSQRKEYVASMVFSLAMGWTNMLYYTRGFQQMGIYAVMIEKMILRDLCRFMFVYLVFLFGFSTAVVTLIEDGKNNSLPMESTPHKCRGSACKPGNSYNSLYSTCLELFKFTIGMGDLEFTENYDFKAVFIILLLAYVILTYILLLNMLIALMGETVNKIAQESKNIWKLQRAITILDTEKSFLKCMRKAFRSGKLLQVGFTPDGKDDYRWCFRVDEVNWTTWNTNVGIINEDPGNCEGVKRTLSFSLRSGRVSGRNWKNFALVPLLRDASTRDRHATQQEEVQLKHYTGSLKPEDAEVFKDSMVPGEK

T1 sequence (Q8NER1 whole entry): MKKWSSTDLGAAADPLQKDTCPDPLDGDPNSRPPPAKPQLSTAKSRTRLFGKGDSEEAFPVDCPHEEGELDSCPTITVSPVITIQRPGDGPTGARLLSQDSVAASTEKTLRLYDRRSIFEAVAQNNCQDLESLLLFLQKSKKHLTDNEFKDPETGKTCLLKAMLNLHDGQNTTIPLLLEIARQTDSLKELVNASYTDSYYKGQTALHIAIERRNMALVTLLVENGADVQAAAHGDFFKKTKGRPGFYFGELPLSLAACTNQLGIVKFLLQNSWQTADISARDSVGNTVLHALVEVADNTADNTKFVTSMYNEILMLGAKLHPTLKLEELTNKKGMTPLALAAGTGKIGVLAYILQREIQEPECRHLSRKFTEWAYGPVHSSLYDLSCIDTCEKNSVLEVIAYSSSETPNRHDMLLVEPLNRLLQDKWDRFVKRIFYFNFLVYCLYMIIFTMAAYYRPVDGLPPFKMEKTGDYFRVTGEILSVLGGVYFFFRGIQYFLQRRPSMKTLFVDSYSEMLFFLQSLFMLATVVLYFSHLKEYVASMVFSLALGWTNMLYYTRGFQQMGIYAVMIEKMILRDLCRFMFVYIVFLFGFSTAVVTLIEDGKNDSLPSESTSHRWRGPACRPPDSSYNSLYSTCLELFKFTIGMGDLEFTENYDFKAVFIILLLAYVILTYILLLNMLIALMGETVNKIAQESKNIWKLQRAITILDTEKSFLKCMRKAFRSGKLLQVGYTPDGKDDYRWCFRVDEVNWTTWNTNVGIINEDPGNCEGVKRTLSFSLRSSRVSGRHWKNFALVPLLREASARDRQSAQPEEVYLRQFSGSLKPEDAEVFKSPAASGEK

SMILES	inhibition at 10 µM [1] [%]	activation at 10 µM [1] [%]	inhibition at 10 µM [2] [%]	activation at 10 µM [2] [%]	EC50 [1] [µM]	EC50 [2] [µM]	VR1 (human) (% inhibition compared to 10 μM CP) [1] [%]	VR1 (human) (% stimulation compared to 10 μM CP) [1] [%]	VR1 (rat) (% inhibition compared to 10 μM CP) [2] [%]	VR1 (rat) (% stimulation compared to 10 μM CP) [2] [%]
Cc1ccc(C=C2SC(N3CCN(Cc4ccccc4)CC3)=NC2=O)cc1 [Example 63, 2-(4-benzylpiperazin-1-yl)-5-(4-methylbenzylidene)thiazol-4-one]	52.8	0	70.9	0.34						
O=C1N=C(N2CCOCC2)SC1=CC(=Cc1ccccc1)c1ccccc1 [Example 50, 5-(2,3-diphenylallylidene)-2-morpholin-4-ylthiazol-4-one]	51.6	0	21.3	7.19						
O=C1N=C(N2CCOCC2)SC1=Cc1cccc(Oc2ccccc2)c1 [Example 18, 2-morpholin-4-yl-5-(3-phenoxybenzylidene)thiazol-4-one]	79.2	139	88	144	3.65	1.29				
O=C1N=C(N2CCSCC2)SC1=Cc1ccccc1C(F)(F)F [Example 22, 2-thiomorpholin-4-yl-5-(2-trifluoromethylbenzylidene)thiazol-4-one]	80.8	64	88.1	116	9.06	8.48				
O=C(NC1=NC(=O)C(=Cc2ccc(C(F)(F)F)cc2)S1)Nc1ccccc1C(F)(F)F [Example 96, 1-[4-oxo-5-(4-trifluoromethylbenzylidene)-4,5-dihydrothiazol-2-yl]-3-(2-trifluoromethylphenyl)urea]	54.6	5.03	27	28.5						
CC(=CC=C1SC(N2CCOCC2)=NC1=O)c1ccc(C)cc1 [Example 33, 2-morpholin-4-yl-5-(3-p-tolylbut-2-enylidene)thiazol-4-one]	14.7	25.7	64.8	49.6						
O=C1N=C(N2CCSCC2)SC1=CC(Cl)=Cc1ccccc1 [Example 85, 5-(2-chloro-3-phenylallylidene)-2-thiomorpholin-4-ylthiazol-4-one]	97.5	82.5	77.1	54.9						
CC1CN(C(=O)c2cccc(C=C3SC(N4CCSCC4)=NC3=O)c2)CCN1c1ncccc1Cl (stereo not shown) [Example 110, 5-{3-[4-(3-chloropyridin-2-yl)-3-methylpiperazine-1-carbonyl]benzylidene}-2-thiomorpholin-4-ylthiazol-4-one]	28.8	1.02	50.3	49.3						
O=C1N=C(N2CCN(c3ncccc3Cl)CC2)SC1=Cc1ccc2ccccc2c1 [Example 49, 2-[4-(3-chloropyridin-2-yl)piperazin-1-yl]-5-naphthalen-2-ylmethylenethiazol-4-one]	34.1	0	78.5	0.4						
COc1cc(C=C2SC(N3CCN(c4ccccc4)CC3)=NC2=O)ccc1O [Example 68, 5-(4-hydroxy-3-methoxybenzylidene)-2-(4-phenylpiperazin-1-yl)thiazol-4-one]	39.3	54.3	11.6	73.4						

Results, then the compound that gave them:

inhibition at 10 µM [1] [%]	activation at 10 µM [1] [%]	inhibition at 10 µM [2] [%]	activation at 10 µM [2] [%]	EC50 [1] [µM]	EC50 [2] [µM]	VR1 (human) (% inhibition compared to 10 μM CP) [1] [%]	VR1 (human) (% stimulation compared to 10 μM CP) [1] [%]	VR1 (rat) (% inhibition compared to 10 μM CP) [2] [%]	VR1 (rat) (% stimulation compared to 10 μM CP) [2] [%]	SMILES
86.7	114	96.9	84							CC(C)c1ccc(C=C2SC(N3CCSCC3)=NC2=O)cc1 [Example 136, 5-(4-isopropylbenzylidene)-2-thiomorpholin-4-ylthiazol-4-one]
76.7	54.3	97.6	60.7	1.02	1.12					CC(C)(C)c1ccc(C=C2SC(N3CCSCC3)=NC2=O)cc1 [Example 198, 5-(4-tert-butylbenzylidene)-2-thiomorpholin-4-ylthiazol-4-one hydrobromide]
						30.72	5.04	38.36	41.89	Br.CC(C)c1ccc(C=C2SC(N3CCOCC3)=NC2=O)cc1 [Example 179, 5-(4-isopropylbenzylidene)-2-morpholin-4-ylthiazol-4-one hydrobromide]
5.47	9.44	34.7	40	28.4	14.8					O=C1N=C(N2CCOCC2)SC1=Cc1cccc2ccccc12 [Example 209, 2-morpholin-4-yl-5-naphthalen-1-ylmethylenethiazol-4-one]
34.2	6.56	54.1	3.99							Cc1ccc(N2CCN(C3=NC(=O)C(=Cc4ccc(C(C)(C)C)cc4)S3)CC2)nn1 [Example 154, 5-(4-tert-butylbenzylidene)-2-[4-(6-methylpyridazin-3-yl)piperazin-1-yl]thiazol-4-one]
66.2	68.2	95.8	128							O=C1N=C(N2CCSCC2)SC1=Cc1cccc(C(=O)N2CCN(c3nsnc3Cl)CC2)c1 [Example 115, 5-{3-[4-(4-chloro-[1,2,5]thiadiazol-3-yl)piperazine-1-carbonyl]benzylidene}-2-thiomorpholin-4-ylthiazol-4-one]
51.1	2.08	22.1	1.24	5.4	1.5					COCCNC1=NC(=O)C(=Cc2ccc(C(C)(C)C)cc2)S1 [Example 216, 5-(4-tert-butylbenzylidene)-2-(2-methoxyethylamino)thiazol-4-one hydrobromide]
						12.88	17.91	78.83	55.76	Cc1ccc(C=C2SC(N3CCOCC3)=NC2=O)cc1 [Example 218, 5-(4-methylbenzylidene)-2-morpholin-4-ylthiazol-4-one]
